Experiments:
[1] = target: α1β2γ2L GABAA receptor (Rattus norvegicus, UniProt P62813+P63138); experiment: two-electrode voltage clamp, concentration-response; type: cell-based
[2] = target: T1, β3(Q64R+G127T) homomeric GABAA receptor (Homo sapiens, UniProt P28472, G152T/Q89R); experiment: as above; type: cell-based
T1 sequence (P28472 26-473 Q89R/G152T): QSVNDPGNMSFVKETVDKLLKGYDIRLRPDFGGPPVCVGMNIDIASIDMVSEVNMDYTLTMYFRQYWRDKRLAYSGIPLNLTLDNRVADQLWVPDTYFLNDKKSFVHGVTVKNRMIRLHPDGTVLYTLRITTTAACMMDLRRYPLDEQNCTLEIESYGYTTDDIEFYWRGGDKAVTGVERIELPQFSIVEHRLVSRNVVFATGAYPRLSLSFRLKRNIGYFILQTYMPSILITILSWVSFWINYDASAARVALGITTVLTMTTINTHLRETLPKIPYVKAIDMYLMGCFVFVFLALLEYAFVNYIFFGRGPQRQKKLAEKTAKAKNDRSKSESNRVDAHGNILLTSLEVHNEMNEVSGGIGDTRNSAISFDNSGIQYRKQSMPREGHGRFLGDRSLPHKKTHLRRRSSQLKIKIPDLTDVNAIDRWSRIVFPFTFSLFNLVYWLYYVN

EC50 [1] [mM]	EC50 [2] [mM]	Structure (SMILES)
0.033 ± 0.012		O=S(=O)(O)C1CCNCC1 [P4S, piperidine-4-sulfonic acid]
	9 ± 0.5	NCCc1c[nH]cn1 [histamine]

Source: PMC11602654 (The Journal of General Physiology, 2024)
